The text below walks through data of patent US20260365682A1, “MODULATORS OF TNF-ALPHA ACTIVITY” (Forward Therapeutics, Inc., priority 2022, published 2026).

Read-outs that look alike come from different tables or passages of the source. Where only a bound is given, the exact number is not on record here.

The assay has as its target T1, TNF-α (Homo sapiens, UniProt P01375).
T1 construct: purchased R&D 210-TA-020/CF
The experiment in a line: TNF-α Induced HEK Blue Cellular Assay (secreted alkaline phosphatase expression, QUANTI-Blue). The conditions noted are these: HEK Blue TNFα reporter cells, TNF-α 100 μg/ml, 24 hrs at 37° C., inhibition of secreted alkaline phosphatase. The class given is cell-based. As for the experimental part:
TNF-α Induced HEK Blue Cellular Assay
Test articles were diluted in DMSO and serially diluted into 384 well assay plate (Corning 3765), at final concentrations ranging from […] to 0.5 nM. HEK Blue™ TNFα reporter cells were added at a final density of 10,000 cell per well in assay media [DMEM (Gibco, cat #21063-029), 10% fetal bovine serum (ExcelBio, cat #FND500), 1% Penicillin-Streptomycin (Solarbio, cat #P1400-100]. TNF-α (R&D 210-TA-020/CF) was then added to the assay plate at a final concentration of […]. This plate was then incubated for 24 hrs at 37° C. and 5% CO2. Secreted alkaline phosphatase expression was then measured using QUANTI-Blue™ (Invivogen), according to manufacturer instructions and read on an Envision microplate reader at 620 nm.
Inhibition data for test compound over a range of concentration was plotted as percentage inhibition of the test compound (100%=maximum inhibition). IC50 values were determined after correcting for background [(sample read-mean of low control)/(mean of high control-mean of low control)] whereby the low control is DMSO without stimulation and high control is DMSO with stimulation. The IC50 is defined as the concentration of test compound which produces 50% inhibition and was quantified using the 4 parameter logistic equation to fit the data.

T1 sequence (P01375 77-233 limits assumed): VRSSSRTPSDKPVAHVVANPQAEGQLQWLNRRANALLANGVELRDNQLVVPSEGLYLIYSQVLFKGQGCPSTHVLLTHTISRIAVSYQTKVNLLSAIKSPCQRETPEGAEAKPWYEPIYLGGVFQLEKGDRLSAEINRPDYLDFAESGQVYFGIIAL

As a reminder, the IC50 is the midpoint of a concentration-inhibition curve. As for `[2H]C([2H])([2H])N1C(=O)c2cccc(OC(F)F)c2[C@H]2C[C@@H]1c1nc3ccc(C#Cc4cn(C)nc4C#N)cc3n12` [Example 20, 4-(((7R,14R)-1-(difluoromethoxy)-6-(methyl-d3)-5-oxo-5,6,7,14-tetrahydro-7,14-methanobenzo[f]benzo[4,5]imidazo[1,2-a][1,4]diazocin-11-yl)ethynyl)-1-methyl-1H-pyrazole-3-carbonitrile], the IC50 (read-out: IC50 value) is < 100 nM.

As to `[2H]C([2H])([2H])N1C(=O)c2cccc(OC(F)F)c2[C@H]2C[C@@H]1c1nc3ccc(C#Cc4cnc(C)nc4)cc3n12` [Example 21, (7R,14R)-1-(difluoromethoxy)-6-(methyl-d3)-11-((2-methylpyrimidin-5-yl)ethynyl)-6,7-dihydro-7,14-methanobenzo[f]benzo[4,5]imidazo[1,2-a][1,4]diazocin-5(14H)-one], for the setting “read-out: IC50 value”, the IC50 was < 100 nM. On to `[2H]C([2H])([2H])N1C(=O)c2cccc(OC(F)F)c2[C@H]2C[C@@H]1c1nc3ccc(C#Cc4cnccn4)cc3n12` [Example 22, (7R,14R)-1-(difluoromethoxy)-6-(methyl-d3)-11-(pyrazin-2-ylethynyl)-6,7-dihydro-7,14-methanobenzo[f]benzo[4,5]imidazo[1,2-a][1,4]diazocin-5(14H)-one], for which the IC50 (read-out: IC50 value) is < 100 nM. For `[2H]C([2H])([2H])N1C(=O)c2cccc(OC(F)F)c2[C@H]2C[C@@H]1c1nc3ccc(C#Cc4cnc(C(F)(F)F)nc4)cc3n12` [Example 23, (7R,14R)-1-(difluoromethoxy)-6-(methyl-d3)-11-((2-(trifluoromethyl)pyrimidin-5-yl)ethynyl)-6,7-dihydro-7,14-methanobenzo[f]benzo[4,5]imidazo[1,2-a][1,4]diazocin-5(14H)-one], the IC50 (read-out: IC50 value) lay in the range of 100 to 1000 nM. On the same count and under the same terms, for `[2H]C([2H])([2H])N1C(=O)c2cccc(OC(F)F)c2[C@H]2C[C@@H]1c1nc3ccc(C#Cc4cnn(C)c4C#N)cc3n12` [Example 24, 4-(((7R,14R)-1-(difluoromethoxy)-6-(methyl-d3)-5-oxo-5,6,7,14-tetrahydro-7,14-methanobenzo[f]benzo[4,5]imidazo[1,2-a][1,4]diazocin-11-yl)ethynyl)-1-methyl-1H-pyrazole-5-carbonitrile] the value was < 100 nM.

For `[2H]C([2H])([2H])N1C(=O)c2cccc(OC(F)F)c2[C@H]2C[C@@H]1c1nc3ccc(C#Cc4nncn4C)cc3n12` [Example 25, (7R,14R)-1-(difluoromethoxy)-6-(methyl-d3)-11-((4-methyl-4H-1,2,4-triazol-3-yl)ethynyl)-6,7-dihydro-7,14-methanobenzo[f]benzo[4,5]imidazo[1,2-a][1,4]diazocin-5(14H)-one], where the note is “read-out: IC50 value”, the IC50 fell in the range of 1000 to 10000 nM. Consider `[2H]C([2H])([2H])N1C(=O)c2cccc(OC(F)F)c2[C@H]2C[C@@H]1c1nc3ccc(C#Cc4ccc(C)nn4)cc3n12` [Example 26, (7R,14R)-1-(difluoromethoxy)-6-(methyl-d3)-11-((6-methylpyridazin-3-yl)ethynyl)-6,7-dihydro-7,14-methanobenzo[f]benzo[4,5]imidazo[1,2-a][1,4]diazocin-5(14H)-one], for which, for the setting “read-out: IC50 value”, the IC50 fell in the range of 100 to 1000 nM.

Take `[2H]C([2H])([2H])N1C(=O)c2cccc(OC(F)F)c2[C@H]2C[C@@H]1c1nc3ccc(C#CC(=O)OC)cc3n12` [Example 27, methyl 3-((7R,14R)-1-(difluoromethoxy)-6-(methyl-d3)-5-oxo-5,6,7,14-tetrahydro-7,14-methanobenzo[f]benzo[4,5]imidazo[1,2-a][1,4]diazocin-11-yl)propiolate]: the IC50 (read-out: IC50 value) was < 100 nM. On to `[2H]C([2H])([2H])N1C(=O)c2cccc(OC(F)F)c2[C@H]2C[C@@H]1c1nc3ccc(C#Cc4nnc(C)o4)cc3n12` [Example 28, (7R,14R)-1-(difluoromethoxy)-6-(methyl-d3)-11-((5-methyl-1,3,4-oxadiazol-2-yl)ethynyl)-6,7-dihydro-7,14-methanobenzo[f]benzo[4,5]imidazo[1,2-a][1,4]diazocin-5(14H)-one], for which the IC50 (read-out: IC50 value) was < 100 nM. For the molecule `[2H]C([2H])([2H])N1C(=O)c2cccc(OC(F)F)c2[C@H]2C[C@@H]1c1nc3ccc(C#Cc4nnc(C)s4)cc3n12` [Example 29, (7R,14R)-1-(difluoromethoxy)-6-(methyl-d3)-11-((5-methyl-1,3,4-thiadiazol-2-yl)ethynyl)-6,7-dihydro-7,14-methanobenzo[f]benzo[4,5]imidazo[1,2-a][1,4]diazocin-5(14H)-one], for the setting “read-out: IC50 value”, the IC50 is < 100 nM. Still for that read-out and setting: under `[2H]C([2H])([2H])N1C(=O)c2cccc(OC(F)F)c2[C@H]2C[C@@H]1c1nc3ccc(C#Cc4nncs4)cc3n12` [Example 30, (7R,14R)-11-((1,3,4-thiadiazol-2-yl)ethynyl)-1-(difluoromethoxy)-6-(methyl-d3)-6,7-dihydro-7,14-methanobenzo[f]benzo[4,5]imidazo[1,2-a][1,4]diazocin-5(14H)-one] stands < 100 nM; under `[2H]C([2H])([2H])N1C(=O)c2cccc(OC(F)F)c2[C@H]2C[C@@H]1c1nc3ccc(C#Cc4cncc(F)c4)cc3n12` [Example 31, (7R,14R)-1-(difluoromethoxy)-11-((5-fluoropyridin-3-yl)ethynyl)-6-(methyl-d3)-6,7-dihydro-7,14-methanobenzo[f]benzo[4,5]imidazo[1,2-a][1,4]diazocin-5(14H)-one], < 100 nM; under `[2H]C([2H])([2H])N1C(=O)c2cccc(OC(F)F)c2[C@H]2C[C@@H]1c1nc3ccc(C#Cc4cncs4)cc3n12` [Example 32, (7R,14R)-1-(difluoromethoxy)-6-(methyl-d3)-11-(thiazol-5-ylethynyl)-6,7-dihydro-7,14-methanobenzo[f]benzo[4,5]imidazo[1,2-a][1,4]diazocin-5(14H)-one], < 100 nM. Turning to `[2H]C([2H])([2H])N1C(=O)c2cccc(OC(F)F)c2[C@H]2C[C@@H]1c1nc3ccc(C#Cc4cccnn4)cc3n12` [Example 33, (7R,14R)-1-(difluoromethoxy)-6-(methyl-d3)-11-(pyridazin-3-ylethynyl)-6,7-dihydro-7,14-methanobenzo[f]benzo[4,5]imidazo[1,2-a][1,4]diazocin-5(14H)-one], the IC50 (read-out: IC50 value) fell in the range of 10000 to 30000 nM. As to `[2H]C([2H])([2H])N1C(=O)c2cccc(OC(F)F)c2[C@H]2C[C@@H]1c1nc3ccc(C#Cc4cnc(C)cn4)cc3n12` [Example 34, (7R,14R)-1-(difluoromethoxy)-6-(methyl-d3)-11-((5-methylpyrazin-2-yl)ethynyl)-6,7-dihydro-7,14-methanobenzo[f]benzo[4,5]imidazo[1,2-a][1,4]diazocin-5(14H)-one], the IC50 (read-out: IC50 value) was < 100 nM. Consider `[2H]C([2H])([2H])N1C(=O)c2cccc(OC(F)F)c2[C@H]2C[C@@H]1c1nc3ccc(C#CC4(O)CCC4)cc3n12` [Example 35, (7R,14R)-1-(difluoromethoxy)-11-((1-hydroxycyclobutyl)ethynyl)-6-(methyl-d3)-6,7-dihydro-7,14-methanobenzo[f]benzo[4,5]imidazo[1,2-a][1,4]diazocin-5(14H)-one], for which, for the setting “read-out: IC50 value”, the IC50 lay within 10000 to 30000 nM. As to `[2H]C([2H])([2H])N1C(=O)c2cccc(OC(F)F)c2[C@H]2C[C@@H]1c1nc3ccc(C#Cc4cnsc4)cc3n12` [Example 36, (7R,14R)-1-(difluoromethoxy)-11-(isothiazol-4-ylethynyl)-6-(methyl-d3)-6,7-dihydro-7,14-methanobenzo[f]benzo[4,5]imidazo[1,2-a][1,4]diazocin-5(14H)-one], the IC50 (read-out: IC50 value) is < 100 nM. Consider `[2H]C([2H])([2H])N1C(=O)c2cccc(OC(F)F)c2[C@H]2C[C@@H]1c1nc3ccc(C#CC(=O)O)cc3n12` [Example 37, 3-((7R,14R)-1-(difluoromethoxy)-6-(methyl-d3)-5-oxo-5,6,7,14-tetrahydro-7,14-methanobenzo[f]benzo[4,5]imidazo[1,2-a][1,4]diazocin-11-yl)propiolic Acid], for which, for the setting “read-out: IC50 value”, the IC50 was < 100 nM. For `[2H]C([2H])([2H])N1C(=O)c2cccc(OC(F)F)c2[C@H]2C[C@@H]1c1nc3ccc(C#CC(=O)OC(C)C)cc3n12` [Example 38, isopropyl 3-((7R,14R)-1-(difluoromethoxy)-6-(methyl-d3)-5-oxo-5,6,7,14-tetrahydro-7,14-methanobenzo[f]benzo[4,5]imidazo[1,2-a][1,4]diazocin-11-yl)propiolate], the IC50 (IC50 value) was < 100 nM.

On to `[2H]C([2H])([2H])N1C(=O)c2cccc(OC(F)F)c2[C@H]2C[C@@H]1c1nc3ccc(C#CC)cc3n12` [Example 39, (7R,14R)-1-(difluoromethoxy)-6-(methyl-d3)-11-(prop-1-yn-1-yl)-6,7-dihydro-7,14-methanobenzo[f]benzo[4,5]imidazo[1,2-a][1,4]diazocin-5(14H)-one], for which, under “read-out: IC50 value”, the IC50 is < 100 nM. Regarding `[2H]C([2H])([2H])N1C(=O)c2cccc(OC(F)F)c2[C@H]2C[C@@H]1c1nc3ccc(C#CC(=O)OCC)cc3n12` [Example 40, ethyl 3-((7R,14R)-1-(difluoromethoxy)-6-(methyl-d3)-5-oxo-5,6,7,14-tetrahydro-7,14-methanobenzo[f]benzo[4,5]imidazo[1,2-a][1,4]diazocin-11-yl)propiolate], the IC50 (IC50 value) was < 100 nM.
